Results from patent publication US10596110B2, “Residence structures and related methods” (Massachusetts Institute of Technology, priority 2014, dated 2020).

Experiment: Stability of drugs in acidic conditions, in solution or in PCL structures (HPLC)
Assay type: physicochemical
Settings: IAW, pH=1, 37° C.
Protocol: Stability of drugs in the gastric environment was evaluated using HPLC and LC-MS/MS analysis. Hydrophilic drugs were dissolved in simulated gastric fluid (SGF, 0.2% (w/v) NaCl, 0.83% (v/v) HCL, pH=1) in centrifuge tubes. Hydrophobic drugs were dissolved in IAW (isopropanol 70%, acetonitrile 20%, water 10%) with pH adjusted to 1 using HCL. As a control, drugs were dissolved in the same solvents with pH adjusted to 6.0 (using IM NaOH). After vortexing for 1 min and sonication for 10 min, tubes were placed in a shaking incubator (150 rpm, 37° C.). Samples were collected at defined time points for up to two weeks and analyzed by HPLC and LC-MS/MS to quantify the stability of drugs.
Stability of drugs loaded into PCL based delivery matrices were also studied. Loading of drugs is described below in Examples 16 and 17. Drug loaded structures were kept at acidic conditions (pH=1, 37° C.) and at defined intervals, drug was extracted from the PCL matrix and analyzed by HPLC and/or LC-MS/MS. In order to extract drugs, structures were sonicated in SGF (hydrophilic drugs) or isopropanol (hydrophobic drugs) for 10 min. Fresh drug in SGF or Isopropanol was prepared immediately before analysis as controls.
Ivermectin (IVM) loaded structures, shown in FIG. 16B, were placed in SGF+RH solution (pH=1, 37° C.) for 72 h. Drug was extracted by sonicating the structure in isopropanol for 10 min.

## Ivermectin
  Stability in acidic conditions (in solution): unstable
